Several values for one entry are separate records, joined by “and”; a condition that tells them apart may be missing. Equal values may be shown once. Toxic doses and inconclusive results are not listed.
Tested on: P388 leukemia ip, CD2F1 mice, survival T/C
Assay: NCI In Vivo Anticancer Drug Screen. Data for tumor model P388 Leukemia (intraperitoneal) in CD2F1 (CDF1) mice
Settings: endpoint: median survival time, higher = longer survival
Procedure, shortened: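 Mice carrying the transplanted tumor received test compound or vehicle. Survival was recorded in each group, and the value is the treated-group measurement divided by that of the vehicle-treated control group.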

[1] = dose: 50.0 mg/kg/injection, schedule: Q01DX009 (ip), vehicle: saline with Tween-80
[2] = dose: 100.0 mg/kg/injection, schedule: Q01DX009 (ip), vehicle: saline with Tween-80
[3] = dose: 200.0 mg/kg/injection, schedule: Q01DX009 (ip), vehicle: saline with Tween-80
[4] = dose: 12.5 mg/kg/injection, schedule: Q01DX005 (ip), vehicle: saline
[5] = dose: 25.0 mg/kg/injection, schedule: Q01DX005 (ip), vehicle: saline
[6] = dose: 50.0 mg/kg/injection, schedule: Q01DX005 (ip), vehicle: saline
[7] = dose: 100.0 mg/kg/injection, schedule: Q01DX001 (ip), vehicle: Klucel (hydroxypropylcellulose) (HPC)
[8] = dose: 400.0 mg/kg/injection, schedule: Q01DX001 (ip), vehicle: Klucel (hydroxypropylcellulose) (HPC)

CC(C)OC1CC(C)(C)c2c(-c3ccccc3)nn(-c3ccccc3)c2O1 (stereo not given)
T/C [1]: 109 % of control | T/C [2]: 98 % of control | T/C [3]: 107 % of control

FC(F)(F)C1(C(F)(F)F)OS2(OC1(C(F)(F)F)C(F)(F)F)OC(C(F)(F)F)(C(F)(F)F)C(C(F)(F)F)(C(F)(F)F)O2
T/C (dose: 100.0 mg/kg/injection, schedule: Q04DX003 (ip), vehicle: Klucel (hydroxypropylcellulose) (HPC)): 91 % of control | T/C (dose: 200.0 mg/kg/injection, schedule: Q04DX003 (ip), vehicle: Klucel (hydroxypropylcellulose) (HPC)): 91 % of control | T/C (dose: 400.0 mg/kg/injection, schedule: Q04DX003 (ip), vehicle: Klucel (hydroxypropylcellulose) (HPC)): 105 % of control

CCOC(=O)c1ccc(N(CC(O)CN)S(=O)(=O)c2ccc(C)cc2)cc1 (stereo not given)
T/C (dose: 15.0 mg/kg/injection, schedule: Q01DX005 (ip), vehicle: saline with Tween-80): 102 % of control | T/C (dose: 30.0 mg/kg/injection, schedule: Q01DX005 (ip), vehicle: saline with Tween-80): 101 % of control | T/C (dose: 60.0 mg/kg/injection, schedule: Q01DX005 (ip), vehicle: saline with Tween-80): 101 % of control and 92 % of control

C=C1CC2(CC[N+](Cc3ccccc3)(Cc3ccccc3)CC2)OC1=O
T/C [4]: 103 % of control | T/C [5]: 103 % of control | T/C [6]: 102 % of control and 97 % of control

Cc1c(-c2ccccc2)[nH]c2cc3c(cc12)Oc1ccccc1O3
T/C (dose: 17.5 mg/kg/injection, schedule: Q01DX009 (ip), vehicle: Klucel (hydroxypropylcellulose) (HPC)): 101 % of control | T/C (dose: 35.0 mg/kg/injection, schedule: Q01DX009 (ip), vehicle: Klucel (hydroxypropylcellulose) (HPC)): 106 % of control | T/C (dose: 70.0 mg/kg/injection, schedule: Q01DX009 (ip), vehicle: Klucel (hydroxypropylcellulose) (HPC)): 105 % of control

CCOC(=O)c1cc(-c2ccccn2)c(=O)n2ccccc12
T/C (dose: 12.5 mg/kg/injection, schedule: Q01DX009 (ip), vehicle: saline): 108 % of control | T/C (dose: 25.0 mg/kg/injection, schedule: Q01DX009 (ip), vehicle: saline): 107 % of control | T/C [1]: 100 % of control | T/C (dose: 50.0 mg/kg/injection, schedule: Q01DX009 (ip), vehicle: saline): 100 % of control

CCCCCN(CCCCC)CC(O)CN1CCCc2ccccc21 (stereo not given)
T/C (dose: 50.0 mg/kg/injection, schedule: Q01DX005 (ip), vehicle: saline with Tween-80): 102 % of control | T/C (dose: 100.0 mg/kg/injection, schedule: Q01DX005 (ip), vehicle: saline with Tween-80): 111 % of control | T/C (dose: 200.0 mg/kg/injection, schedule: Q01DX005 (ip), vehicle: saline with Tween-80): 112 % of control

Oc1c(Cl)cc(Cl)cc1CN1CCCCC1
T/C (dose: 50.0 mg/kg/injection, schedule: Q01DX009 (ip), vehicle: suspension in saline): 91 % of control | T/C (dose: 100.0 mg/kg/injection, schedule: Q01DX009 (ip), vehicle: suspension in saline): 98 % of control | T/C (dose: 200.0 mg/kg/injection, schedule: Q01DX009 (ip), vehicle: suspension in saline): 91 % of control

CCOC1CC(C)(O)C(C(=O)OC)c2cc3c(c(O)c21)C(=O)c1c(O)cc2c(c1C3=O)OC1OC2(C)C(O)C(N(C)C)C1O (stereo not given)
T/C (dose: 3.16 mg/kg/injection, schedule: Q01DX009 (ip), vehicle: other): 151 % of control | T/C (dose: 6.25 mg/kg/injection, schedule: Q01DX009 (ip), vehicle: other): 161 % of control | T/C (dose: 12.5 mg/kg/injection, schedule: Q01DX009 (ip), vehicle: other): 171 % of control

[Cl][Ru][Cl].[NH-]CC[NH-].[NH-]CC[NH-]
T/C (dose: 12.5 mg/kg/injection, schedule: Q04DX003 (ip), vehicle: water): 111 % of control and 123 % of control and 124 % of control | T/C (dose: 25.0 mg/kg/injection, schedule: Q04DX003 (ip), vehicle: water): 107 % of control | T/C (dose: 50.0 mg/kg/injection, schedule: Q04DX003 (ip), vehicle: water): 155 % of control

CNC(=O)OCC1=C(COC(=O)NC)C2OC1C(C(=O)OC)=C2C(=O)OC
T/C (dose: 3.13 mg/kg/injection, schedule: Q01DX009 (ip), vehicle: distilled water + Tween-80): 91 % of control | T/C (dose: 12.5 mg/kg/injection, schedule: Q01DX009 (ip), vehicle: distilled water + Tween-80): 94 % of control

Cc1ccc(-c2cs/c(=N\N=C3/CSC(=O)N3Cc3ccccc3)n2-c2ccc(C)cc2)cc1
T/C (dose: 100.0 mg/kg/injection, schedule: Q04DX002 (ip), vehicle: Klucel (hydroxypropylcellulose) (HPC)): 100 % of control | T/C (dose: 200.0 mg/kg/injection, schedule: Q04DX002 (ip), vehicle: Klucel (hydroxypropylcellulose) (HPC)): 107 % of control | T/C (dose: 400.0 mg/kg/injection, schedule: Q04DX002 (ip), vehicle: Klucel (hydroxypropylcellulose) (HPC)): 102 % of control

COC1/C=C/OC2(C)Oc3c(C)c(O)c4c(O)c(c(/C=N/N(C)c5ncnc6c5ncn6C5OC(CO)C(O)C5O)c(O)c4c3C2=O)NC(=O)C(C)=C/C=C/C(C)C(O)C(C)C(O)C(C)C(OC(C)=O)C1C (stereo not given)
T/C [1]: 100 % of control | T/C [2]: 102 % of control | T/C [3]: 102 % of control

CC1=CC(=C2C=C(C)C(=O)C(C)=C2)C=C(C)C1=O
T/C (dose: 100.0 mg/kg/injection, schedule: Q01DX009 (ip), vehicle: saline): 97 % of control and 98 % of control | T/C (dose: 200.0 mg/kg/injection, schedule: Q01DX009 (ip), vehicle: saline): 91 % of control and 95 % of control | T/C (dose: 400.0 mg/kg/injection, schedule: Q01DX009 (ip), vehicle: saline): 93 % of control and 94 % of control

CC(OS(C)(=O)=O)/C(Br)=C(/Br)C(C)OS(C)(=O)=O (stereo not given)
T/C [7]: 158 % of control | T/C (dose: 200.0 mg/kg/injection, schedule: Q01DX001 (ip), vehicle: Klucel (hydroxypropylcellulose) (HPC)): 204 % of control | T/C [8]: 230 % of control

CCCCCCCCCCCCCC(CCCCCCCC)CCCCCCCC
T/C (dose: 50.0 mg/kg/injection, schedule: Q01DX001 (ip), vehicle: saline sonified): 100 % of control | T/C (dose: 100.0 mg/kg/injection, schedule: Q01DX001 (ip), vehicle: saline sonified): 113 % of control | T/C (dose: 200.0 mg/kg/injection, schedule: Q01DX001 (ip), vehicle: saline sonified): 100 % of control

COC(=O)/C(=C/C=C(c1ccccc1)c1ccccc1)N(C(C)=O)C(C)=O
T/C (dose: 100.0 mg/kg/injection, schedule: Q01DX001 (ip), vehicle: saline with Tween-80): 104 % of control | T/C (dose: 200.0 mg/kg/injection, schedule: Q01DX001 (ip), vehicle: saline with Tween-80): 104 % of control | T/C (dose: 400.0 mg/kg/injection, schedule: Q01DX001 (ip), vehicle: saline with Tween-80): 96 % of control

C[C@@H]1CC(=O)C[C@H]2CCCCN21
T/C [4]: 102 % of control | T/C [5]: 103 % of control | T/C [6]: 105 % of control

Nc1ccc(S(=O)(=O)n2c(=O)oc3cc(Cl)ccc32)cc1
T/C (dose: 12.5 mg/kg/injection, schedule: Q01DX005 (ip), vehicle: Klucel (hydroxypropylcellulose) (HPC)): 100 % of control | T/C (dose: 25.0 mg/kg/injection, schedule: Q01DX005 (ip), vehicle: Klucel (hydroxypropylcellulose) (HPC)): 93 % of control | T/C (dose: 50.0 mg/kg/injection, schedule: Q01DX005 (ip), vehicle: Klucel (hydroxypropylcellulose) (HPC)): 102 % of control and 91 % of control

COc1c(O)ccc2c1CCCCC2=O
T/C [2]: 103 % of control | T/C [3]: 110 % of control | T/C (dose: 400.0 mg/kg/injection, schedule: Q01DX009 (ip), vehicle: saline with Tween-80): 106 % of control

CC(C)NCC(O)COc1ccc(OCc2ccccc2)c(OCc2ccccc2)c1 (stereo not given)
T/C [1]: 100 % of control

COC(C(=O)C(O)C(C)O)C1Cc2cc3cc(OC4CC(OC5CC(O)C(O)C(C)O5)C(O)C(C)O4)c(C)c(O)c3c(O)c2C(=O)C1OC1CC(OC2CC(O)C(OC3CC(C)(O)C(O)C(C)O3)C(C)O2)C(O)C(C)O1 (stereo not given)
T/C (dose: 0.06 mg/kg/injection, schedule: Q01DX009 (ip), vehicle: saline): 122 % of control | T/C (dose: 0.13 mg/kg/injection, schedule: Q01DX001 (ip), vehicle: saline): 104 % of control | T/C (dose: 0.13 mg/kg/injection, schedule: Q01DX009 (ip), vehicle: saline): 106 % of control | T/C (dose: 0.25 mg/kg/injection, schedule: Q01DX001 (ip), vehicle: saline): 103 % of control | T/C (dose: 0.25 mg/kg/injection, schedule: Q01DX009 (ip), vehicle: saline): 109 % of control | T/C (dose: 0.5 mg/kg/injection, schedule: Q01DX001 (ip), vehicle: saline): 109 % of control | T/C (dose: 0.5 mg/kg/injection, schedule: Q04DX003 (ip), vehicle: saline): 116 % of control | T/C (dose: 2.0 mg/kg/injection, schedule: Q01DX009 (ip), vehicle: saline): 151 % of control

COc1ccc(N=C2C(=Nc3ccc(OC)cc3)N(S(=O)(=O)c3ccc(C)cc3)C(=S)N2c2ccccc2)cc1
T/C (dose: 50.0 mg/kg/injection, schedule: Q01DX005 (ip), vehicle: Klucel + Tween-80): 100 % of control | T/C (dose: 100.0 mg/kg/injection, schedule: Q01DX005 (ip), vehicle: Klucel + Tween-80): 98 % of control

OCc1c(Cl)nc2sccn12
T/C (dose: 25.0 mg/kg/injection, schedule: Q01DX001 (ip), vehicle: Klucel (hydroxypropylcellulose) (HPC)): 109 % of control | T/C (dose: 50.0 mg/kg/injection, schedule: Q01DX001 (ip), vehicle: Klucel (hydroxypropylcellulose) (HPC)): 105 % of control | T/C [7]: 93 % of control and 97 % of control | T/C [8]: 92 % of control
